Experimental data published in the CheMixHub viscosity set.
Several values for one entry are separate records, joined by “and”; a condition that tells them apart may be missing. Equal values may be shown once. ± gives the uncertainty stated by the source.

SMILES	viscosity (293.15 K, 100 kPa)	viscosity (293.15 K, 101 kPa)	viscosity (298.15 K, 101.33 kPa)	viscosity (303.15 K, 100 kPa)	viscosity (308.15 K, 100 kPa)	viscosity (313.15 K, 100 kPa)	viscosity (313.15 K, 101 kPa)	viscosity (318.15 K, 100 kPa)	viscosity (323.15 K, 100 kPa)	viscosity (298.15 K, 101 kPa)	viscosity (303.15 K, 101 kPa)	viscosity (308.15 K, 101 kPa)	viscosity (323.15 K, 101 kPa)	viscosity (298.15 K, 100 kPa)	viscosity (318.15 K, 101 kPa)	other results
CCCCCCCCCCO	14.27 ± 0.2 mPa·s	13.04 ± 0.067 mPa·s	11.57 ± 1.2 mPa·s	9.708 ± 0.13 mPa·s	8.108 ± 0.11 mPa·s	6.846 ± 0.19 mPa·s	6.846 ± 0.21 mPa·s and 7.929 ± 1.6 mPa·s and 6.845 ± 0.048 mPa·s	5.879 ± 0.16 mPa·s and 5.771 ± 0.079 mPa·s and 5.785 ± 0.18 mPa·s	4.918 ± 0.067 mPa·s and 4.94 ± 0.15 mPa·s	–	–	–	–	–	–	viscosity (293.15 K, 101.33 kPa): 14.55 ± 0.34 mPa·s; viscosity (300 K, 101 kPa): 10.3 ± 0.13 mPa·s; viscosity (303.15 K, 101.3 kPa): 8.835 ± 0.087 mPa·s; viscosity (308 K, 101 kPa): 7.646 ± 0.054 mPa·s; viscosity (308.15 K, 101.3 kPa): 8.39 ± 0.18 mPa·s; viscosity (308.15 K, 101.33 kPa): 7.918 ± 0.84 mPa·s; viscosity (310 K, 101 kPa): 7.09 ± 0.09 mPa·s; viscosity (313 K, 101 kPa): 6.396 ± 0.17 mPa·s; viscosity (313.15 K, 101.3 kPa): 6.955 ± 0.072 mPa·s; viscosity (313.15 K, 101.33 kPa): 6.955 ± 0.048 mPa·s and 6.955 ± 0.04 mPa·s and 6.955 ± 0.072 mPa·s; viscosity (318.15 K, 101.3 kPa): 5.878 ± 0.13 mPa·s; viscosity (320 K, 101 kPa): 5 ± 0.06 mPa·s
CCOC(=O)OCC	–	0.8024 ± 0.0091 mPa·s	–	0.698 ± 0.015 mPa·s	0.65 ± 0.02 mPa·s	0.622 ± 0.013 mPa·s	0.621 ± 0.017 mPa·s	0.58 ± 0.02 mPa·s	0.54 ± 0.02 mPa·s	0.74 mPa·s and 0.7539 ± 0.0087 mPa·s	0.701 ± 0.019 mPa·s	0.656 ± 0.018 mPa·s	0.543 ± 0.0064 mPa·s	–	–	viscosity (318.15 K, 101.3 kPa): 0.578 ± 0.008 mPa·s; viscosity (318.15 K, 101.33 kPa): 0.578 ± 0.008 mPa·s
Cc1ccc(Cl)cc1	–	–	–	0.782 ± 0.05 mPa·s	0.724 ± 0.05 mPa·s and 0.737 ± 0.016 mPa·s	0.682 ± 0.05 mPa·s	0.684 ± 0.012 mPa·s and 0.682 ± 0.019 mPa·s	0.632 ± 0.05 mPa·s and 0.662 ± 0.014 mPa·s	–	–	0.782 ± 0.013 mPa·s and 0.782 ± 0.021 mPa·s	0.728 ± 0.02 mPa·s	–	0.83 ± 0.018 mPa·s	0.632 ± 0.018 mPa·s	–
CCCCCCCCCCCC	–	–	1.324 ± 0.017 mPa·s	–	1.115 ± 0.11 mPa·s and 1.157 ± 0.014 mPa·s	–	1.039 ± 0.026 mPa·s	0.986 ± 0.13 mPa·s	0.9146 ± 0.037 mPa·s and 0.921 ± 0.13 mPa·s	1.34 ± 0.06 mPa·s and 1.338 ± 0.012 mPa·s and 1.336 ± 0.032 mPa·s	–	1.112 ± 0.014 mPa·s and 1.125 ± 0.028 mPa·s	0.898 ± 0.023 mPa·s	–	0.935 ± 0.012 mPa·s and 0.965 ± 0.024 mPa·s	viscosity (298.15 K, 103 kPa): 1.291 ± 0.041 mPa·s; viscosity (303.15 K, 101.33 kPa): 1.215 ± 0.03 mPa·s and 1.209 ± 0.027 mPa·s; viscosity (307.52 K, 101.3 kPa): 1.159 ± 0.014 mPa·s; viscosity (307.57 K, 101.3 kPa): 1.159 ± 0.014 mPa·s; viscosity (308.15 K, 103 kPa): 1.086 ± 0.041 mPa·s; viscosity (313.15 K, 101.33 kPa): 1.025 ± 0.026 mPa·s; viscosity (318.15 K, 101.33 kPa): 0.935 ± 0.012 mPa·s; viscosity (318.15 K, 103 kPa): 0.936 ± 0.041 mPa·s; viscosity (323.15 K, 102 kPa): 0.917 ± 0.021 mPa·s (2×) and 0.919 ± 0.021 mPa·s
COCCOCCO	–	3.906 ± 0.058 mPa·s	3.565 ± 0.037 mPa·s and 3.565 ± 0.084 mPa·s	–	–	–	–	–	–	3.442 ± 0.062 mPa·s and 3.574 ± 0.053 mPa·s	3.152 ± 0.047 mPa·s	2.593 ± 0.048 mPa·s	–	–	2.159 ± 0.039 mPa·s	viscosity (293.15 K, 101.3 kPa): 3.943 ± 0.022 mPa·s; viscosity (303.15 K, 101.3 kPa): 3.016 ± 0.017 mPa·s; viscosity (308.15 K, 101.33 kPa): 2.627 ± 0.063 mPa·s and 2.865 ± 0.035 mPa·s; viscosity (313.15 K, 101.3 kPa): 2.348 ± 0.013 mPa·s; viscosity (323.15 K, 101.3 kPa): 1.902 ± 0.011 mPa·s
COC=O	–	–	0.328 ± 0.003 mPa·s	–	–	–	–	–	–	–	–	–	–	–	–	–
Cc1ccccc1C	–	0.7604 ± 0.011 mPa·s	0.7587 ± 0.0096 mPa·s	–	0.6199 ± 0.074 mPa·s	–	–	–	–	0.765 ± 0.012 mPa·s and 0.761 ± 0.02 mPa·s	0.6725 ± 0.01 mPa·s and 0.68 ± 0.007 mPa·s and 0.7095 ± 0.018 mPa·s	0.676 ± 0.0068 mPa·s and 0.656 ± 0.009 mPa·s	–	0.7464 ± 0.09 mPa·s	–	viscosity (293.15 K, 101.33 kPa): 0.812 ± 0.008 mPa·s; viscosity (298.15 K, 101.3 kPa): 0.78 ± 0.01 mPa·s; viscosity (303.15 K, 101.3 kPa): 0.7272 ± 0.013 mPa·s and 0.7062 ± 0.037 mPa·s; viscosity (303.15 K, 101.32 kPa): 0.702 ± 0.018 mPa·s; viscosity (303.15 K, 101.33 kPa): 0.757 ± 0.078 mPa·s and 0.711 ± 0.007 mPa·s; viscosity (308.15 K, 101.33 kPa): 0.5381 ± 0.0069 mPa·s and 0.725 ± 0.075 mPa·s and 0.659 ± 0.005 mPa·s; viscosity (313.15 K, 101.32 kPa): 0.627 ± 0.016 mPa·s; viscosity (313.15 K, 101.33 kPa): 0.702 ± 0.073 mPa·s; viscosity (318.15 K, 101.33 kPa): 0.682 ± 0.072 mPa·s; viscosity (323.15 K, 101.3 kPa): 0.5554 ± 0.03 mPa·s
OCCOCCOCCO	42 ± 0.9 mPa·s and 48.2 ± 1 mPa·s and 48.4 ± 0.2 mPa·s	–	–	–	23.3 ± 0.1 mPa·s	19.8 ± 0.1 mPa·s	19.8 ± 0.4 mPa·s	15.4 ± 0.4 mPa·s and 15.83 ± 0.33 mPa·s and 15.1 ± 0.1 mPa·s	13.23 ± 0.28 mPa·s	37.1 ± 0.8 mPa·s	–	23.36 ± 0.2 mPa·s and 21.2 ± 0.5 mPa·s	–	37.1 ± 3.8 mPa·s and 37.8 ± 0.2 mPa·s	15.59 ± 0.14 mPa·s and 16.1 ± 0.4 mPa·s	viscosity (293.15 K, 101.32 kPa): 46.1 ± 3.2 mPa·s; viscosity (298.1 K, 101 kPa): 37.4 ± 3 mPa·s; viscosity (313.15 K, 101.32 kPa): 17.4 ± 1.2 mPa·s
OCCN(CCO)CCO	935 ± 140 mPa·s	911.7 ± 63 mPa·s and 795 ± 48 mPa·s	–	413 ± 60 mPa·s	–	–	201.7 ± 4.8 mPa·s	–	–	607 ± 26 mPa·s	403 ± 25 mPa·s	–	123 ± 3.6 mPa·s	611 ± 91 mPa·s	–	–
CCn1cc[n+](C)c1.F[B-](F)(F)F	50.54 ± 5.1 mPa·s	–	–	34.53 ± 3.5 mPa·s	–	24.83 ± 2.5 mPa·s	20.41 ± 0.33 mPa·s and 20.41 ± 2.1 mPa·s	–	18.62 ± 1.9 mPa·s	36.8 ± 6.5 mPa·s	28 ± 0.45 mPa·s and 28 ± 2.8 mPa·s	–	15.35 ± 0.25 mPa·s and 15.35 ± 1.5 mPa·s	41.45 ± 4.2 mPa·s	–	–
CCCCCCC(=O)[O-].CC[NH+](C(C)C)C(C)C	–	–	–	–	–	–	–	–	–	–	–	–	–	–	–	viscosity (298.15 K, 101.3 kPa): 12.23 ± 0.76 mPa·s
Cl[Si](Cl)(Cl)Cl	–	–	–	–	–	–	–	–	–	–	–	–	–	–	–	viscosity (303.1 K, 101 kPa): 0.462 ± 0.019 mPa·s and 0.442 ± 0.018 mPa·s; viscosity (313.1 K, 101 kPa): 0.402 ± 0.017 mPa·s
CCCCCC(=O)[O-].[NH3+]CCO	–	2571 ± 280 mPa·s	–	–	–	–	645.8 ± 62 mPa·s	–	–	1765 ± 200 mPa·s	1239 ± 130 mPa·s	892.2 ± 89 mPa·s	358.5 ± 31 mPa·s	–	477.6 ± 43 mPa·s	–
CN1CCN(C)C1=O	2.139 ± 0.088 mPa·s	–	–	1.76 ± 0.072 mPa·s	1.616 ± 0.066 mPa·s	1.491 ± 0.061 mPa·s	–	1.381 ± 0.057 mPa·s	1.28 ± 0.052 mPa·s	–	–	–	–	1.945 ± 0.08 mPa·s	–	–
CCCCCCCCCCCC[P+](CC)(CC)CC.N#Cc1ccc[n-]1	422 ± 62 mPa·s and 423 ± 62 mPa·s	–	–	212 ± 30 mPa·s and 214 ± 31 mPa·s	–	117 ± 17 mPa·s and 114 ± 16 mPa·s	–	–	–	–	–	–	–	296 ± 43 mPa·s and 310 ± 45 mPa·s	–	–
